How the values were obtained:
Assay type in all cases: cell-based
SRD5A3 = biological target: T1, SRD5A3 (Homo sapiens, UniProt Q9H8P0); experiment: Western blot assay in PC-3 cells: SRD5A3; conditions: different concentrations at 24 h (FIG. 9)
T1 construct: The downregulation of SRD5A3 and GSPT1 (eRF3a) proteins in PC-3 and HepG2 cells by C59; endogenous in cells; host or cells: 22Rv1, PC-3, HepG2
T1 sequence (Q9H8P0 1-318): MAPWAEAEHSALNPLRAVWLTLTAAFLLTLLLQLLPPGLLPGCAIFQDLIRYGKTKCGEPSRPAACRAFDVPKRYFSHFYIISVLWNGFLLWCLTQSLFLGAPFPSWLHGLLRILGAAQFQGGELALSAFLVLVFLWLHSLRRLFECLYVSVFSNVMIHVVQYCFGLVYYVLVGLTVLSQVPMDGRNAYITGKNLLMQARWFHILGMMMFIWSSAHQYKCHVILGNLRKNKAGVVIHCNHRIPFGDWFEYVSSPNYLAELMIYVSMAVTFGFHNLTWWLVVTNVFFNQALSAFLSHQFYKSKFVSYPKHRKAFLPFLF
Excerpt: Example 84: Western Blot Assay of Compound C59 in 22Rv1, PC-3, and HepG2 Cells
(1) Materials: 22Rv1, PC-3, and HepG2 cell, anti-SRD5A1 antibody (ab167606), anti-SRD5A2 antibody (ab124877), anti-SRD5A3 antibody (PA5-107029), anti-androgen receptor (AR) antibody (CST, No. 5153), anti-GSPT1 antibody (Abcam, ab234433), anti-GADPH antibody (CST, No. 5174), anti-c-Myc antibody (CST, No. 8583), anti-α-tublin antibody (CST, No. 2125), anti-rabbit IgG, HRP-linked antibody (CST, No. 7074), electrophoresis device and membrane transfer device (LIUYI, BEIJING; DYCZ-24DN)
Cell seeding: 22Rv1 (Cell Bank of the Chinese Academy of Sciences, TCHu100), PC-3 (Cell Bank of the Chinese Academy of Sciences, SCSP-532) and HepG2 cells (Cell Bank of the Chinese Academy of Sciences, TCHu72) were subcultured and trypsinized to prepare 6×10^5 cells/mL suspensions, seeded on 6-well plates (3 mL/well), and cultured overnight in a cell incubator at 5% CO2 and 37° C. […]
Protein quantification: The protein was quantified using a BCA protein quantification kit. […]
Western immunoblot assay (or Western blot, WB): SDS-PAGE gel at a proper concentration was prepared according to the molecular weight of the target protein: for example, the concentration of the separation gel was 8% and the concentration of the stacking gel was 5%. The loading volume was adjusted according to the protein quantification results. […]

AGS cells = experiment: Anti-proliferative toxicity of C63 in tumor cell lines (CCK8): AGS; conditions: Homo sapiens, 72 h, 3 days, read-out: Inhibition rate
Description: (§1) Example 83: Detection of Anti-Proliferative Toxicity of C63 in Some Tumor Cell Lines
AGS cells (purchased from the Cell Bank of the Chinese Academy of Sciences, Cat. No. TCHu232) were subcultured in a culture medium (F12K medium+[…] dual-antibiotic solution+10% fetal bovine serum) in an incubator at […] and 37° C.
AGS cells were seeded at 2000 cells/well (90 μL) on a 96-well plate and cultured for 24 h.
(§2) 10 mM compound stock solutions were prepared in DMSO.
(§3) The compound stock solution was diluted with DMSO to give DMSO solutions 1-9 at concentrations of 0 μM, 2500 μM, 500 μM, 100 μM, 20 μM, 4 μM, 0.8 μM, 0.16 μM, and 0.032 μM.
(§4) 2 μL of each of solutions 1-9 was added to 98 μL of the medium to give mixed solutions 11-19 of the compound and the medium.
(§5) 10 μL of each of solutions 11-19 was added to the above cell seed solution to give a total volume of 100 μL (90 μL+10 μL).
(§6) The concentrations of the compound in the wells were 0 μM, 5.0 μM, 1.0 μM, 0.2 μM, 0.04 μM, 0.008 μM, 0.0016 μM, 0.00032 μM, and 0.000064 μM. All concentrations were in triplicate.
(§7) After the above-treated cells were cultured for 3 days, 10 μL of the CCK8 solution (DOJINDO, Cat. No. PF725) was added to each well. The plate was incubated in an incubator at 37° C. for 1-4 h and then detected on a microplate reader for the reading at 450 nm.

Hep 3B2.1-7 cells = experiment: Anti-proliferative toxicity of C63 in tumor cell lines (CCK8): Hep 3B2.1-7; conditions: Homo sapiens, 72 h, 3 days, read-out: Inhibition rate
Description: as §1
Hep3B2.1-7 cells (purchased from the Cell Bank of the Chinese Academy of Sciences, Cat. No. TCHu106) were subcultured in a culture medium (MEM medium+1% penicillin-streptomycin dual-antibiotic solution+10% fetal bovine serum) in an incubator at 5% carbon dioxide and 37° C.
Hep 3B2.1-7 cells were seeded at 2000 cells/well (90 μL) on a 96-well plate and cultured for 24 h.
as §2, §3, §4, §5, §6, §7

Structure (SMILES)	downregulation of SRD5A3 protein (Western blot) (SRD5A3)	inhibition at 64 pM (AGS cells; 0.000064 μM) [%]	inhibition at 0.00032 µM (AGS cells; 0.000320 μM) [%]	inhibition at 0.0016 µM (AGS cells; 0.001600 μM) [%]	inhibition at 0.008 µM (AGS cells; 0.008000 μM) [%]	inhibition at 0.04 µM (AGS cells; 0.040000 μM) [%]	inhibition at 0.2 µM (AGS cells; 0.200000 μM) [%]	inhibition at 1 µM (AGS cells; 1.000000 μM) [%]	inhibition at 5 µM (AGS cells; 5.000000 μM) [%]	inhibition at 64 pM (Hep 3B2.1-7 cells; 0.000064 μM) [%]	inhibition at 0.00032 µM (Hep 3B2.1-7 cells; 0.000320 μM) [%]	inhibition at 0.0016 µM (Hep 3B2.1-7 cells; 0.001600 μM) [%]	inhibition at 0.008 µM (Hep 3B2.1-7 cells; 0.008000 μM) [%]	inhibition at 0.04 µM (Hep 3B2.1-7 cells; 0.040000 μM) [%]	inhibition at 0.2 µM (Hep 3B2.1-7 cells; 0.200000 μM) [%]	inhibition at 1 µM (Hep 3B2.1-7 cells; 1.000000 μM) [%]	inhibition at 5 µM (Hep 3B2.1-7 cells; 5.000000 μM) [%]
C[C@]12C=CC(=O)N[C@@H]1CC[C@@H]1[C@@H]2CC[C@]2(C)[C@@H](C(=O)Nc3cccc(N[C@@H]4CCC[C@@H](Nc5cccc6c5C(=O)N(C5CCC(=O)NC5=O)C6=O)C4)c3)CC[C@@H]12 (stereo partly drawn) [C59, N-(3-(N—(N-(4-(2-(3-(2,6-dioxopiperidine))-isoindole-1,3-dione))-1R,3R-cyclohexanediamine))phenyl)-3-oxo-4-aza-5α-androst-1-ene-17β-carboxamide]	downregulation																
C[C@]12C=CC(=O)N[C@@H]1CC[C@@H]1[C@@H]2CC[C@]2(C)[C@@H](C(=O)Nc3cccc(N[C@@H]4CCC[C@@H](Nc5cccc6c5C(=O)N([C@H]5CCC(=O)NC5=O)C6=O)C4)c3)CC[C@@H]12 [C63, N-(3-(N—(N-(4-(2-(3S-(2,6-dioxopiperidine))-isoindole-1,3-dione))-1R,3R-cyclohexanediamine))phenyl)-3-oxo-4-aza-5α-androst-1-ene-17β-carboxamide]		17.5	11.1	20.4	44.2	59.7	74	79.8	80.8	77.5	90.6	90.2	90.4	90.7	89.6	90.5	88.8
